# Results from ChEMBL document CHEMBL6092217 (Eur J Med Chem, 2024).
# Calls of active or inactive are those of the source. No cut-off for these calls is given here.
# Key:
# [1] = Toxicity in ICR mouse assessed as effect on monocyte count at 10 to 40 mg/kg, iv administered every 2 days and measured after 14 days; format: organism-based; conditions: in vivo, 336 h, dose 10-40 mg/kg, time 14 day
# [2] = Toxicity in ICR mouse assessed as effect on LDH level at 10 to 40 mg/kg, iv administered every 2 days and measured after 14 days; format: organism-based; conditions: in vivo, 336 h, dose 10-40 mg/kg, time 14 day
# PC-3 = assay: Antiproliferative activity against human PC-3 cells assessed as cell viability incubated for 72 hrs by MTT assay; format: functional, cell-based; conditions: PC-3, 72 h
# HT-29 [3] = assay: Induction of apoptosis in human HT-29 cells assessed as late apoptotic cells at 200 nM incubated for 24 hrs by FITC/PI staining based flow cytometry analysis (reference value: 0.20%); format: functional
# [4] = Toxicity in BALB/c mouse assessed as liver damage at 10 to 40 mg/kg, iv measured after 21 days by H and E staining based analysis; format: organism-based; conditions: in vivo, 504 h, dose 10-40 mg/kg, time 21 day
# [5] = Clerance in Sprague-Dawley rat at 5 mg/kg, iv measured upto 24 hrs by HPLC-MS analysis; format: ADME, organism-based; conditions: in vivo
# RKO = assay: Antiproliferative activity against human RKO cells assessed as cell viability incubated for 72 hrs by MTT assay; format: functional, cell-based
# HT-29 [6] = assay: Induction of ROS accumulation in human HT-29 cells incubated for 24 hrs by DCFH-DA staining based microscopic analysis; format: functional, cell-based; conditions: dose 50-100 nM
# HT-29 [7] = assay: Induction of apoptosis in human HT-29 cells assessed as late apoptotic cells at 50 nM incubated for 24 hrs by FITC/PI staining based flow cytometry analysis (reference value: 0.20%); format: functional
# [8] = Volume of distribution at steady state in Sprague-Dawley rat at 5 mg/kg, iv measured upto 24 hrs by HPLC-MS analysis; format: ADME, organism-based; conditions: in vivo, read-out: Vdss
# [9] = Toxicity in ICR mouse assessed as effect on BUN level at 10 to 40 mg/kg, iv administered every 2 days and measured after 14 days; format: organism-based; conditions: in vivo, 336 h, dose 10-40 mg/kg, time 14 day
# Tubulin (Homo sapiens) [10] = biological target: T1, Tubulin (Homo sapiens) (UniProt P68371+Q9H4B7+P0DPH7+P68366+Q13509+Q71U36+P04350+Q3ZCM7+P07437+P68363+Q9BQE3+Q6PEY2+Q13885+Q9BVA1+Q9BUF5); assay: (§1) Inhibition of tubulin polymerization (unknown origin) in presence of GTP by fluorescence plate reader analysis; format: protein-complex assay; conditions: dose 0.625-10 µM
# Tubulin = assay: as §1; format: protein-complex assay, Homo sapiens
# HT-29 [11] = assay: Induction of apoptosis in human HT-29 cells assessed as late apoptotic cells at 100 nM incubated for 24 hrs by FITC/PI staining based flow cytometry analysis (reference value: 0.20%); format: functional
# HT-29 [12] = assay: Induction of cell cycle arrest in human HT-29 cells assessed as accumulation of cells at S phase at 100 nM incubated for 24 hrs by flow cytometry analysis (reference value: 20.8 %); format: functional
# [13] = MRT (0 to t) in Sprague-Dawley rat at 5 mg/kg, iv measured upto 24 hrs by HPLC-MS analysis; format: ADME, organism-based; conditions: in vivo
# HT-29 [14] = assay: Antitumor activity against human HT-29 cells xenografted in BALB/c mouse assessed as tumor growth inhibition at 40 mg/kg, iv measured after 21 days; format: functional; conditions: HT-29, 504 h, time 21 day, read-out: TGI
# A549 [15] = assay: Inhibition of cell invasion in human A549 cells measured for 24 hrs by Transwell assay; format: functional, cell-based; conditions: dose 50-100 nM
# [16] = Toxicity in BALB/c mouse assessed as kidney damage at 10 to 40 mg/kg, iv measured after 21 days by H and E staining based analysis; format: organism-based; conditions: in vivo, 504 h, dose 10-40 mg/kg, time 21 day
# HT-29 [17] = assay: Antitumor activity against human HT-29 cells xenografted in BALB/c mouse assessed as tumor growth inhibition at 20 mg/kg, iv measured after 21 days; format: functional; conditions: HT-29, 504 h, time 21 day, read-out: TGI
# HT-29 [18] = assay: Induction of apoptosis in human HT-29 cells assessed as early apoptotic cells at 100 nM incubated for 24 hrs by FITC/PI staining based flow cytometry analysis (reference value: 8.14%); format: functional
# Tubulin (Homo sapiens) [19] = biological target: T1, Tubulin (Homo sapiens); assay: Inhibition of tubulin polymerization in human HT-29 cells assessed as upregulation of DeY- alpha-tubulin expression 50 to 200 nM incubated for 24 hrs by Western blot analysis; format: cell-based; conditions: dose 50-200 nM
# HT-29 [20] = assay: Induction of apoptosis in human HT-29 cells assessed as necrotic cells at 100 nM incubated for 24 hrs by FITC/PI staining based flow cytometry analysis (reference value: 0.017 %); format: functional
# HT-29 [21] = assay: Induction of apoptosis in human HT-29 cells assessed as early apoptotic cells at 200 nM incubated for 24 hrs by FITC/PI staining based flow cytometry analysis (reference value: 8.14%); format: functional
# HT-29 [22] = assay: Induction of apoptosis in human HT-29 cells assessed as necrotic cells at 50 nM incubated for 24 hrs by FITC/PI staining based flow cytometry analysis (reference value: 0.017 %); format: functional
# [23] = Toxicity in ICR mouse assessed as effect on hemoglobin level at 10 to 40 mg/kg, iv administered every 2 days and measured after 14 days; format: organism-based; conditions: in vivo, 336 h, dose 10-40 mg/kg, time 14 day
# HT-29 [24] = assay: Antiproliferative activity against human HT-29 cells assessed as cell viability incubated for 72 hrs by MTT assay; format: functional, cell-based; conditions: HT-29, 72 h
# [25] = Resistance index, ratio of IC50 for human A549/TxR cells to IC50 for human A549 cells; format: functional
# Mitochondrial membrane = assay: Induction of mitochondrial membrane potential loss in human HT-29 cells incubated for 24 hrs by JC-1 staining based confocal microscopic analysis; format: cell membranes; conditions: dose 50-100 nM
# [26] = Half life in Sprague-Dawley rat at 5 mg/kg, iv measured upto 24 hrs by HPLC-MS analysis; format: ADME, organism-based; conditions: in vivo
# [27] = Toxicity in ICR mouse assessed as effect on granulocytes count at 10 to 40 mg/kg, iv administered every 2 days and measured after 14 days; format: organism-based; conditions: in vivo, 336 h, dose 10-40 mg/kg, time 14 day
# A549 [28] = assay: Inhibition of cell migration in human A549 cells incubated for 24 hrs by wound healing assay; format: functional, cell-based; conditions: dose 50-100 nM
# HT-29 [29] = assay: Induction of cell cycle arrest in human HT-29 cells assessed as accumulation of cells at G1 phase at 200 nM incubated for 24 hrs by flow cytometry analysis (reference value: 67.6%); format: functional
# HT-29 [30] = assay: Induction of cell cycle arrest in human HT-29 cells assessed as accumulation of cells at S phase at 200 nM incubated for 24 hrs by flow cytometry analysis (reference value: 20.8 %); format: functional
# Tubulin (Homo sapiens) [31] = biological target: T1, Tubulin (Homo sapiens); assay: Binding affinity to Tubulin colchicine binding site in human HT-29 cells assessed as inhibition of EBI-beta-tubulin adduct formation at 1 to 100 uM preincubated with compound for 2 hrs followed by EBI addition measured after 1.5 hrs by EBI competition based Western blotting analysis; format: cell-based; conditions: dose 1-100 µM, time 3.5 hrs
# HT-29 [32] = assay: Induction of cell cycle arrest in human HT-29 cells assessed as increase in cyclin-B1 expression incubated for 24 hrs by Western blot analysis; format: functional, cell-based; conditions: dose 50-200 nM
# HT-29 [33] = assay: Induction of apoptosis in human HT-29 cells assessed as viable cells at 100 nM incubated for 24 hrs by FITC/PI staining based flow cytometry analysis (reference value: 91.6%); format: functional; conditions: read-out: Activity
# HT-29 [34] = assay: Induction of apoptosis in human HT-29 cells assessed as upregulation of cleaved caspase 3 level at 50 to 200 nM incubated for 24 hrs by Western blot analysis; format: functional, cell-based; conditions: dose 50-200 nM
smiles,measurement,setting,value
COc1ccc(N(C)c2nc(/C=C/c3cccc(OC)c3)nc3ccccc23)cc1,Activity,[1],Non-toxic
same,Activity,[2],Non-toxic
same,IC50,PC-3,0.13 µM
same,Activity,HT-29 [3],37.3%
same,Activity,[4],Non-toxic
same,clearance,[5],22.2 mL/min/kg
same,IC50,RKO,0.1 µM
same,Activity,HT-29 [6],Dose-dependent-effect
same,Activity,HT-29 [7],13.6%
same,Vd,[8],1.03 L/kg
same,Activity,[9],Non-toxic
same,inhibition,Tubulin (Homo sapiens) [10],Dose-dependent-effect
same,IC50,Tubulin,3.16 µM
same,Activity,HT-29 [11],27.2%
same,Activity,HT-29 [12],24.9%
same,MRT last at 24 h,[13],46.8 min
same,inhibition in vivo at 40 mg/kg,HT-29 [14],74.2%
same,inhibition,A549 [15],Dose-dependent-effect
same,Activity,[16],Non-toxic
same,inhibition in vivo at 20 mg/kg,HT-29 [17],64.7%
same,Activity,HT-29 [18],2.87%
same,inhibition,Tubulin (Homo sapiens) [19],Active
same,Activity,HT-29 [20],2.72%
same,Activity,HT-29 [21],18.2%
same,Activity,HT-29 [22],1.79%
same,Activity,[23],Non-toxic
same,IC50,HT-29 [24],0.051 µM
same,Ratio IC50,[25],2.53
same,Activity,Mitochondrial membrane,Dose-dependent-effect
same,half-life,[26],30.6 min
same,Activity,[27],Non-toxic
same,inhibition,A549 [28],Dose-dependent-effect
same,Activity,HT-29 [29],23.5%
same,Activity,HT-29 [30],7.31%
same,inhibition,Tubulin (Homo sapiens) [31],Active
same,Activity,HT-29 [32],Dose-dependent-effect
same,viability at 0.1 µM,HT-29 [33],67.2%
same,Activity,HT-29 [34],Active
